Measurements published in patent US11571423B2, “Small molecule modulators of human sting” (Curadev Pharma Limited, priority 2017, dated 2023).
Like-named read-outs stand apart in the source and are kept apart here.

Experiments:
IRF pathway = assay: Reporter gene expression assay in THP1-Dual cells, IRF axis (secreted Lucia luciferase); format: cell-based, human; conditions: 20 hr stimulation, EC50 range class, read-out: THP-IRF activity
Method: (§1) THP1-Dual™ cells (Invivogen) were derived from the human THP-1 monocyte cell line by stable integration of two inducible reporter constructs. As a result, THP1-Dual™ cells allow the simultaneous study of the NF-κB pathway, by monitoring the activity of secreted SEAP, and the IRF pathway, by assessing the activity of a secreted luciferase (Lucia). 5×10^5 THP1-Dual™ cells were seeded in 384-well plates in growth medium and stimulated with novel compounds. After 20 hr of stimulation supernatants were removed and reporter proteins were readily measured in the cell culture supernatant using QUANTI-Blue™ (Invivogen), a SEAP detection reagent, and QUANTI-Luc™ (Invivogen), a luciferase detection reagent on a Spectramax i3X luminometer.
(§2) EC50 value ranges for exemplary compounds tested in the above assay are given.

hSTING(R232) = hSTING(R232) (Homo sapiens, UniProt Q86WV6, H232R); assay: Luciferase reporter assay in HEK293T-hSTING-Luciferase cells, R232 (wild type) human STING; format: cell-based; conditions: 20 hr stimulation, read-out: R232 human activity (EC50 range)
How it was run: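 Clonal HEK293T cells stably expressing STING from a pUNO-1 plasmid plus an ISRE/ISG54-driven secreted luciferase reporter; 5×10^5 cells stimulated with compound for 20 hr. Supernatant luciferase read by luminescence, giving fold-induction over baseline and EC50.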

hSTING(H232) = hSTING(H232) (Homo sapiens, UniProt Q86WV6); assay: Luciferase reporter assay in HEK293T-hSTING-Luciferase cells, H232/REF polymorph; format: cell-based; conditions: H232/REF polymorph of human STING, EC50 range class
Description: (§3) Stable Cell Line Generation • a) Stable STING expressing cells—Stable HEK293T STING-expressing cell lines were generated using plasmids purchased from Invivogen, CA, USA, that contain STING cDNA cloned into the pUNO-1 vector under hEF1-HTLV promoter and containing the Blasticidin selection cassette. The plasmids hSTING(R232), hSTING(H232), hSTING(HAQ) were directly procured from Invivogen while hSTING (AQ) and hSTING (Q) were derived from hSTING(HAQ) and hSTING (R232) plasmids respectively by using a PCR based site directed mutagenesis method. These vectors were individually transfected into HEK293T cells using Lipofectamine (Invitrogen) and transfected cells were selected under Blasticidin selection. These transfected cells were further subjected to clonal selection using the limiting dilution method to obtain clonally pure populations of HEK cells transfected with each of the above mentioned human STING variants. Only those clones were selected in which ligand independent activation of STING was minimal. • b) Stable Luciferase reporter gene expressing cells—Stable HEK293T Luciferase reporter gene expressing cell lines were generated using pCDNA4 plasmids under an IRF-inducible promoter. This promoter is comprised of five tandem interferon-stimulated response elements (ISRE) fused to an ISG54 minimal promoter. This vector was transfected into HEK293T cells using Lipofectamine (Invitrogen) and transfected cells were selected under Zeocin selection. These transfected cells were further subjected to clonal selection using the limiting dilution method to obtain clonally pure populations of HEK cells transfected the Luciferase reporter construct. Only those clones were selected in which ligand independent induction of luciferase was minimal.
(§4) 5×10^5 clonally selected HEK293T-hSTING-Luciferase cells were seeded in 384-well plates in growth medium and stimulated with novel compounds. After 20 hr of stimulation supernatant were removed and secretary reporter gene activity were measured using the Quanti-Luc detection system (Invivogen) on a Spectramax i3X luminometer.
(§5) In the tables below, EC50 value ranges for exemplary compounds are given.
(§6) Single nucleotide polymorphisms of human STING have been described, which can affect the functional potency of compounds that modulate the activity of the STING protein (see Yi et. al., PLoS One, October 2013, 8(10), e77846). The 5 major polymorphisms of human STING are shown in FIG. 1, with their prevalence in human populations indicated.
(§7) The tables below show the potency of selected compounds of the invention against the most common polymorphisms.

hSTING(HAQ) = hSTING(HAQ) (Homo sapiens, UniProt Q86WV6, G230A/H232R/R293Q/R71H); assay: Luciferase reporter assay in HEK293T-hSTING-Luciferase cells, HAQ polymorph; format: cell-based; conditions: HAQ polymorph of human STING, EC50 range class
Description: as §3, §4, §5, §6, §7

NF-κB pathway = assay: Reporter gene expression assay in THP1-Dual cells, NFkB axis (secreted SEAP); format: cell-based, human; conditions: 20 hr stimulation, EC50 range class, read-out: THP-NFκB activity
Method: as §1, §2

[1] = target: cynomolgus monkey STING protein (Macaca fascicularis, UniProt A0A2R3XZA6); assay: Luciferase reporter assay, cynomolgus monkey STING overexpressed in HEK293T cells; format: cell-based; conditions: cynomolgus monkey STING overexpressed in HEK293T cells; read-out: Cynomolgus monkey STING activity (EC50 range)
How it was run: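 HEK293T cells overexpressing cynomolgus STING with a secreted luciferase reporter were stimulated with compound for 20 hr. Supernatant reporter activity was then measured by Quanti-Luc luminescence, and EC50 values were derived.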

Sequence of hSTING(R232) (Q86WV6 whole entry H232R): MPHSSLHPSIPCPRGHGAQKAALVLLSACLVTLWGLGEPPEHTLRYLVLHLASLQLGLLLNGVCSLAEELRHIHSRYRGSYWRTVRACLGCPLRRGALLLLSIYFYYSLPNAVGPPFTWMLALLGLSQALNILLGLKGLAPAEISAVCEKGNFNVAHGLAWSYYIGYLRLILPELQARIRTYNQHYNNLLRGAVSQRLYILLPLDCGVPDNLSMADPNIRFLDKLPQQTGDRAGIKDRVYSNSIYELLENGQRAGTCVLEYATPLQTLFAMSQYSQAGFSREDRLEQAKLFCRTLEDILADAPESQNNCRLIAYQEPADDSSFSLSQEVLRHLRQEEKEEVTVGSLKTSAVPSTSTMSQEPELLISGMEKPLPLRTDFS
Sequence of hSTING(H232) (Q86WV6 whole entry): as the sequence (Q86WV6 whole entry H232R) above, with R232H counted along it
Sequence of hSTING(HAQ) (Q86WV6 whole entry R71H/G230A/H232R/R293Q): as the sequence (Q86WV6 whole entry H232R) above, with R71H, G230A, R293Q counted along it
Sequence of cynomolgus monkey STING protein (A0A2R3XZA6 entry or part of it): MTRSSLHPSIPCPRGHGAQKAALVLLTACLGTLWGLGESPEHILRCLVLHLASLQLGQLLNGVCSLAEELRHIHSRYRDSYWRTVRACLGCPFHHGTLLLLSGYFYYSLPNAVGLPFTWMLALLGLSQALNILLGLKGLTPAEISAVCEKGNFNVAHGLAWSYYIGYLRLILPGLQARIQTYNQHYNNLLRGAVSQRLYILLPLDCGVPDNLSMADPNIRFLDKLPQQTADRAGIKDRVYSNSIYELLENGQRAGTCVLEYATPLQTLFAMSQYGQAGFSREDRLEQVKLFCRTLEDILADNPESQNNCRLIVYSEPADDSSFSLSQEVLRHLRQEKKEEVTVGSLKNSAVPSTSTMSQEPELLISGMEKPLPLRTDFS

Row | Compound | EC50 (IRF pathway; Homo sapiens) [µM] | EC50 (hSTING(R232)) [µM] | EC50 (hSTING(H232)) [µM] | EC50 (hSTING(HAQ)) [µM] | EC50 (NF-κB pathway; Homo sapiens) [µM] | EC50 [1] [µM] | EC50 (IRF pathway) [µM] | EC50 (NF-κB pathway) [µM]
1 | C[C@H]1c2ccc(C(=O)NCc3c(F)cc(F)cc3F)cc2N(Cc2c(F)ccc(OCCCO)c2Cl)C(=O)N1C [Example 138, (S)-1-(2-Chloro-6-fluoro-3-(3-hydroxypropoxy)benzyl)-3,4-dimethyl-2-oxo-N-(2,4,6-trifluorobenzyl)-1,2,3,4-tetrahydroquinazoline-7-carboxamide] | < 1 | < 1 | < 1 | < 1 | < 1 | < 1 |  | 
2 | CC1c2ccc(C(=O)NCc3ccc(O)cc3)cc2N(Cc2c(F)cccc2Cl)C(=O)N1C (stereo not shown) [Example 235, 1-(2-chloro-6-fluorobenzyl)-N-(4-hydroxybenzyl)-3,4-dimethyl-2-oxo-1,2,3,4-tetrahydroquinazoline-7-carboxamide] | > 10 | 1 to 10 | 1 to 10 | 1 to 10 | > 10 |  |  | 
3 | COc1cc(F)c(CNC(=O)c2ccc3c(c2)N(Cc2c(F)cccc2Cl)C(=O)N(C)[C@H]3C)c(F)c1 [Example 246, (S)-1-(2-chloro-6-fluorobenzyl)-N-(2,6-difluoro-4-methoxybenzyl)-3,4-dimethyl-2-oxo-1,2,3,4-tetrahydroquinazoline-7-carboxamide] | < 1 | < 1 | < 1 | < 1 | < 1 |  |  | 
4 | CC1c2ccc(C(=O)NCc3c(F)cc(F)cc3F)cc2N(Cc2c(F)cccc2N(C)C)C(=O)N1C (stereo not shown) [Example 175, 1-(2-(dimethylamino)-6-fluorobenzyl)-3,4-dimethyl-2-oxo-N-(2,4,6-trifluorobenzyl)-1,2,3,4-tetrahydroquinazoline-7-carboxamide] | > 10 | 1 to 10 | 1 to 10 | 1 to 10 | > 10 |  |  | 
5 | COc1cc(F)c(CN2C(=O)N(C)[C@@H](C)c3ccc(C(=O)NCc4c(F)cc(F)cc4F)cc32)c(Cl)c1 [Example 293, (S)-1-(2-chloro-6-fluoro-4-methoxybenzyl)-3,4-dimethyl-2-oxo-N-(2,4,6-trifluorobenzyl)-1,2,3,4-tetrahydroquinazoline-7-carboxamide] | < 1 | < 1 | < 1 | < 1 | < 1 |  |  | 
6 | CC1c2ccc(C(=O)NCc3c(F)cc(F)cc3F)cc2N(Cc2c(F)cccc2C(F)(F)F)C(=O)N1C (stereo not shown) [Example 196, 1-(2-fluoro-6-(trifluoromethyl)benzyl)-3,4-dimethyl-2-oxo-N-(2,4,6-trifluorobenzyl)-1,2,3,4-tetrahydroquinazoline-7-carboxamide] | < 1 | < 1 | < 1 | < 1 | < 1 |  |  | 
7 | C[C@H]1c2ccc(C(=O)NCc3c(F)cc(F)cc3F)cc2N(Cc2ccc(N)cc2)C(=O)N1C [Example 243, (S)-1-(4-aminobenzyl)-3,4-dimethyl-2-oxo-N-(2,4,6-trifluorobenzyl)-1,2,3,4-tetrahydroquinazoline-7-carboxamide] | > 10 | 1 to 10 | 1 to 10 | 1 to 10 | > 10 |  |  | 
8 | Cc1cc(CN2C(=O)N(C)C(C)c3ccc(C(=O)NCc4c(F)cc(F)cc4F)cc32)ccn1 (stereo not shown) [Example 208, 3,4-dimethyl-1-((2-methylpyridin-4-yl)methyl)-2-oxo-N-(2,4,6-trifluorobenzyl)-1,2,3,4-tetrahydroquinazoline-7-carboxamide] | 1 to 10 | < 1 | < 1 | < 1 | 1 to 10 |  |  | 
9 | C[C@H]1c2ccc(C(=O)NCc3c(F)cc(F)cc3F)cc2N(Cc2cc(CO)ccc2F)C(=O)N1C (stereo in doubt) [Example 268, 1-(2-fluoro-5-(hydroxymethyl)benzyl)-3,4-dimethyl-2-oxo-N-(2,4,6-trifluorobenzyl)-1,2,3,4-tetrahydroquinazoline-7-carboxamide] | 1 to 10 | < 1 | 1 to 10 | 1 to 10 | 1 to 10 |  |  | 
10 | Cc1ncc(CN2C(=O)N(C)Cc3ccc(C(=O)NCc4c(F)cc(F)cc4F)cc32)s1 [Example 20, 3-methyl-1-((2-methylthiazol-5-yl)methyl)-2-oxo-N-(2,4,6-trifluorobenzyl)-1,2,3,4-tetrahydroquinazoline-7-carboxamide] | 1 to 10 | 1 to 10 | 1 to 10 | 1 to 10 | 1 to 10 |  |  | 

Continued, values first:

Row | EC50 (IRF pathway; Homo sapiens) [µM] | EC50 (hSTING(R232)) [µM] | EC50 (hSTING(H232)) [µM] | EC50 (hSTING(HAQ)) [µM] | EC50 (NF-κB pathway; Homo sapiens) [µM] | EC50 [1] [µM] | EC50 (IRF pathway) [µM] | EC50 (NF-κB pathway) [µM] | Compound
11 | < 1 |  | < 1 | < 1 | < 1 | < 1 |  |  | CC1c2ccc(C(=O)NCc3c(F)cc(F)cc3F)cc2N(Cc2c(O)cccc2F)C(=O)N1C (stereo not shown) [Example 171, 1-(2-fluoro-6-hydroxybenzyl)-3,4-dimethyl-2-oxo-N-(2,4,6-trifluorobenzyl)-1,2,3,4-tetrahydroquinazoline-7-carboxamide]
12 | < 1 | < 1 | < 1 | < 1 | < 1 | < 1 |  |  | C[C@H]1c2ccc(C(=O)NCc3c(F)cc(F)cc3F)cc2N(Cc2c(F)cc(O)cc2F)C(=O)N1C [Example 78, (S)-1-(2,6-difluoro-4-hydroxybenzyl)-3,4-dimethyl-2-oxo-N-(2,4,6-trifluorobenzyl)-1,2,3,4-tetrahydroquinazoline-7-carboxamide]
13 | < 1 |  | < 1 | < 1 | < 1 | < 1 |  |  | CC1c2ccc(C(=O)NCc3c(F)cc(F)cc3F)cc2N(Cc2c(F)cccc2F)C(=O)N1C (stereo not shown) [Example 206, 1-(2,6-difluorobenzyl)-3,4-dimethyl-2-oxo-N-(2,4,6-trifluorobenzyl)-1,2,3,4-tetrahydroquinazoline-7-carboxamide]
14 |  | < 1 | < 1 | < 1 |  |  | < 1 | < 1 | Cc1cccc(F)c1CN1C(=O)N(C)C(C)c2ccc(C(=O)NCc3c(F)cc(F)cc3F)cc21 (stereo not shown) [Example 203, 1-(2-fluoro-6-methylbenzyl)-3,4-dimethyl-2-oxo-N-(2,4,6-trifluorobenzyl)-1,2,3,4-tetrahydroquinazoline-7-carboxamide]
15 | > 10 | 1 to 10 | > 10 | > 10 | > 10 |  |  |  | CN1Cc2ccc(C(=O)NCc3c(F)cc(F)cc3F)cc2N(Cc2c(F)cccc2C#N)C1=O [Example 39, 1-(2-cyano-6-fluorobenzyl)-3-methyl-2-oxo-N-(2,4,6-trifluorobenzyl)-1,2,3,4-tetrahydroquinazoline-7-carboxamide]
16 | > 10 | < 1 | 1 to 10 | 1 to 10 | 1 to 10 |  |  |  | Cc1cccc(-c2nc(CN3C(=O)N(C)Cc4ccc(C(=O)NCc5c(F)cc(F)cc5F)cc43)c(C)o2)c1 [Example 38, 3-methyl-1-((5-methyl-2-(m-tolyl)oxazol-4-yl)methyl)-2-oxo-N-(2,4,6-trifluorobenzyl)-1,2,3,4-tetrahydroquinazoline-7-carboxamide]
